Key:
Format in all cases: cell-based
[1] = test system: human breast cancer cell line T-47D; test: Caspase cascade activation (EC50), T-47D; conditions: Homo sapiens; T47D cells; caspase cascade activation; read-out: caspase potency (EC50) T47D
Protocol: (§1) Human breast cancer cell lines T-47D, human hepatocellular carcinoma cell line SNU398, human colon carcinoma cell line HCT116, human cancer cell line H1299, human Burkitt's lymphoma cell line Namalwa, human lymphoma cell line Raji, and human B cell lymphoblastoid cell line Ramos were grown according to media component mixtures designated by American Type Culture Collection+10% FCS (Invitrogen Corporation), in a 5% CO2-95% humidity incubator at 37° C. T-47D and H1299 cells were maintained at a cell density between 50 and 80% confluency at a cell density of 0.1 to 0.6×10^6 cells/mL. Cells were harvested at 600×g and resuspended at 0.65×10^6 cells/mL into appropriate media+10% FCS. An aliquot of 22.5 μL of cells was added to a well of a 384-well microtiter plate containing 2.5 μL of a 10% DMSO in RPMI-1640 media solution containing 0.16 to 100 μM of 3-(2-chlorophenyl)-6-(3,4-methylenedioxyphenyl)-7H-[1,2,4]triazolo[3,4-b][1,3,4]thiadiazine or other test compound (0.016 to 10 μM final). An aliquot of 22.5 μL of cells was added to a well of a 384-well microtiter plate containing 2.5 μL of a 10% DMSO in RPMI-1640 media solution without test compound as the control sample. The samples were mixed by agitation and then incubated at 37° C. for 48 h in a 5% CO2-95% humidity incubator. After incubation, the samples were removed from the incubator and 25 μL of a solution containing 14 μM of N—(Ac-DEVD)-N′-ethoxycarbonyl-R110 (SEQ ID No.:1) fluorogenic substrate (Cytovia, Inc.; WO99/18856), 20% sucrose (Sigma), 20 mM DTT (Sigma), 200 mM NaCl (Sigma), 40 mM Na PIPES buffer pH 7.2 (Sigma), and 500 μg/mL lysolecithin (Calbiochem) was added. The samples were mixed by agitation and incubated at room temperature. Using a fluorescent plate reader (Model SPECTRAfluor Plus, Tecan), an initial reading (T=0) was made approximately 1-2 min after addition of the substrate solution, employing excitation at 485 nm and emission at 530 nm, to determine the background fluorescence of the control sample. After the 3 h incubation, the samples were read for fluorescence as above (T=3 h). Calculation: The Relative Fluorescence Unit values (RFU) were used to calculate the sample readings as follows: RFU(T=3H)−Control RFU(T=0)=Net RFU(T=3h) The activity of caspase cascade activation was determined by the ratio of the net RFU value for 3-(2-chlorophenyl)-6-(3,4-methylenedioxyphenyl)-7H-[1,2,4]triazolo[3,4-b][1,3,4]thiadiazine (Example P) or other test compound to that of control samples. The EC50 (nM) was determined by a sigmoidal dose-response calculation (Prism 3.0, GraphPad Software Inc.).

[2] = test system: human hepatocellular carcinoma cell line SNU398; test: Caspase cascade activation (EC50), SNU398; conditions: Homo sapiens, SNU-398; SNU398 cells; caspase cascade activation; read-out: caspase potency (EC50) SNU398
Protocol: as §1

[3] = test system: human colon carcinoma cell line HCT116; test: Caspase cascade activation (EC50), HCT116; conditions: Homo sapiens, HCT-116; HCT116 cells; caspase cascade activation; read-out: caspase potency (EC50) HCT116
Protocol: as §1

[4] = test system: human Burkitt's lymphoma cell line Namalwa; test: Caspase cascade activation (EC50), Namalwa; conditions: Homo sapiens, Burkitts lymphoma cell; Namalwa cells; caspase cascade activation; read-out: caspase potency (EC50) Namalwa
Protocol: as §1

Row | EC50 [1] | EC50 [2] | EC50 [3] | EC50 [4] | SMILES
1 | 4.61 µM | 4920 nM | 5090 nM | 4.93 µM | COc1cc(OC)cc(-c2nnc3n2N=C(c2ccc4[nH]c(=O)oc4c2)CS3)c1 [Example 34, 6-(2,3-Dihydro-2-oxobenzo[d]oxazol-6-yl)-3-(3,5-dimethoxyphenyl)-7H-[1,2,4]triazolo[3,4-b][1,3,4]thiadiazine]
2 | > 10 µM | > 10000 nM | > 10000 nM | > 10 µM | COc1ccc(-c2nnc3n2N=C(c2ccc4[nH]c(=O)oc4c2)CS3)cc1OC [Example 35, 6-(2,3-Dihydro-2-oxobenzo[d]oxazol-6-yl)-3-(3,4-dimethoxyphenyl)-7H-[1,2,4]triazolo[3,4-b][1,3,4]thiadiazine]
3 | > 10 µM |  | > 10000 nM | > 10 µM | COc1ccc(-c2nn3c(-c4ccccc4OC)nnc3[nH]c2=O)cc1 [Example 36, 3-(2-Methoxyphenyl)-6-(4-methoxyphenyl)-[1,2,4]triazolo[4,3-b][1,2,4]triazin-7(8H)-one]
4 | 5.83 µM | 5040 nM | > 10000 nM | > 10 µM | COc1cc(-c2n[nH]c3nc(=O)c(-c4ccc(C)cc4)nn23)cc(OC)c1OC [Example 37, 3-(3,4,5-Trimethoxyphenyl)-6-(4-methylphenyl)-1H-[1,2,4]triazolo[4,3-b][1,2,4]triazin-7-one]
5 | > 10 µM | > 10000 nM | > 10000 nM | > 10 µM | COc1ccccc1-c1n[nH]c2nc(=O)c(-c3ccc(C)cc3)nn12 [Example 38, 3-(2-Methoxyphenyl)-6-(4-methylphenyl)-1H-[1,2,4]triazolo[4,3-b][1,2,4]triazin-7-one]
6 | 2.7 µM | 943 nM | 2580 nM | 1.28 µM | COc1ccccc1-c1nnc2n1N=C(c1ccc(C)cc1C)CS2 [Example 39, 3-(2-Methoxyphenyl)-6-(2,4-dimethylphenyl)-7H-[1,2,4]triazolo[3,4-b][1,3,4]thiadiazine]
7 | 0.281 µM | 243 nM | 275 nM | 0.248 µM | COc1ccccc1-c1nnc2n1N=C(c1ccc(C(C)C)cc1)CS2 [Example 44, 6-(4-Isopropylphenyl)-3-(2-methoxyphenyl)-7H-[1,2,4]triazolo[3,4-b][1,3,4]thiadiazine]
8 | > 10 µM | > 10000 nM | > 10000 nM | > 10 µM | COc1ccccc1-c1nnc2n1N=C(c1ccc([N+](=O)[O-])c(OC)c1)CS2 [Example 45, 6-(3-Methoxy-4-nitrophenyl)-3-(2-methoxyphenyl)-7H-[1,2,4]triazolo[3,4-b][1,3,4]thiadiazine]
9 | 0.395 µM | 60 nM | 177 nM |  | COc1ccc(C2=Nn3c(nnc3-c3ccccc3Cl)SC2)cc1 [Example C2, 3-(2-Chlorophenyl)-6-(4-methoxyphenyl)-7H-[1,2,4]triazolo[3,4-b][1,3,4]thiadiazine]
10 | 0.687 µM | 112 nM | 525 nM |  | COc1cccc(-c2nnc3n2N=C(c2ccc(O)c(O)c2)CS3)c1 [Example D2, 3-(3-Methoxyphenyl)-6-(3,4-dihydroxyphenyl)-7H-[1,2,4]triazolo[3,4-b][1,3,4]thiadiazine]
11 | 1.1 µM | 429 nM | 681 nM |  | CCOc1ccc(C2=Nn3c(nnc3-c3cccc(Cl)c3)SC2)cc1 [Example E2, 3-(3-Chlorophenyl)-6-(4-ethoxyphenyl)-7H-[1,2,4]triazolo[3,4-b][1,3,4]thiadiazine]
12 | 5.4 µM | 2700 nM | > 10000 nM |  | COc1cccc(-c2nnc3n2N=C(c2ccc(Br)cc2)CS3)c1 [Example F2, 3-(3-Methoxyphenyl)-6-(4-bromophenyl)-7H-[1,2,4]triazolo[3,4-b][1,3,4]thiadiazine]
13 | 6.37 µM | 2550 nM | > 10000 nM |  | CCOc1ccc(C2=Nn3c(nnc3-c3cccc(OCC)c3)SC2)cc1 [Example G2, 3-(3-Ethoxyphenyl)-6-(4-ethoxyphenyl)-7H-[1,2,4]triazolo[3,4-b][1,3,4]thiadiazine]

Reference: patent US20080045514A1 (Cytovia, Inc., priority 2006, published 2008)
